Results: the supplement of paper PMC11061612

Key:
Olaparib = compound: O=C(c1cc(Cc2n[nH]c(=O)c3ccccc23)ccc1F)N1CCN(C(=O)C2CC2)CC1 [Olaparib]
How it was run: (§1)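 Viability was measured with CellTiter-Glo 2.0 luminescence after 72 hours of dosing at a final DMSO of typically 0.2%, and scaled between blank-well and DMSO-well means. Beforehand, cancer cell lines sat 24 hours at 37°C and 5% CO2 in 1536-well plates in 7.5 μl DMEM/F12 or RPMI with 10% FBS. A non-linear mixed effects model fitted two-parameter logistic curves to the dose responses. The single-agent IC50 comes from these fits.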

Alisertib = compound: COc1cc(Nc2ncc3c(n2)-c2ccc(Cl)cc2C(c2c(F)cccc2OC)=NC3)ccc1C(=O)O [Alisertib]; conditions: max 10 µM
How it was run: as §1

AZD4320 = compound: CN(CC[C@H](CSC1=CC=CC=C1)NC2=C(C=C(C=C2)S(=O)(=O)NC(=O)C3=CC=C(C=C3)N4CCC(CC4)[C@H](C5=CC=CC=C5C6=CC=C(C=C6)Cl)O)S(=O)(=O)C(F)(F)F)CCO [AZD4320]; conditions: max 1 µM
How it was run: as §1

AZD0156 = compound: CN(C)CCCOc1ccc(-c2ccc3ncc4c(c3c2)n(C2CCOCC2)c(=O)n4C)cn1 [AZD0156]; conditions: max 3 µM
How it was run: as §1

Selumetinib = compound: Cn1cnc2c(F)c(Nc3ccc(Br)cc3Cl)c(C(=O)NOCCO)cc21 [Selumetinib]; conditions: max 10 µM
How it was run: as §1

Trametinib = compound: CC(=O)Nc1cccc(-n2c(=O)n(C3CC3)c(=O)c3c(Nc4ccc(I)cc4F)n(C)c(=O)c(C)c32)c1 [Trametinib]; conditions: max 1 µM
How it was run: as §1

AZD6738 = compound: C[C@@H]1COCCN1C2=NC(=NC(=C2)C3(CC3)[S@](=N)(=O)C)C4=C5C=CNC5=NC=C4 [AZD6738]; conditions: max 10 µM
How it was run: as §1

Lapatinib = compound: CS(=O)(=O)CCNCc1ccc(-c2ccc3ncnc(Nc4ccc(OCc5cccc(F)c5)c(Cl)c4)c3c2)o1 [Lapatinib]; conditions: max 10 µM
How it was run: as §1

Crizotinib = compound: C[C@@H](Oc1cc(-c2cnn(C3CCNCC3)c2)cnc1N)c1c(Cl)ccc(F)c1Cl [Crizotinib]; conditions: max 10 µM
How it was run: as §1

AZD7648 = compound: Cc1cc2ncnn2cc1Nc1ncc2c(n1)n(C1CCOCC1)c(=O)n2C [AZD7648]; conditions: max 10 µM
How it was run: as §1

AZD5991 = compound: Cc1c2c(nn1C)CSCc1cc(n(C)n1)CSc1cc(c3ccccc3c1)OCCCc1c(C(=O)O)n(C)c3c-2c(Cl)ccc13 [AZD5991]; conditions: max 1 µM
How it was run: as §1

SN-38 = compound: CCc1c2c(nc3ccc(O)cc13)-c1cc3c(c(=O)n1C2)COC(=O)[C@]3(O)CC [SN-38]; conditions: max 0.3 µM
How it was run: as §1

Taselisib = compound: Cc1nc(-c2cn3c(n2)-c2ccc(-c4cnn(C(C)(C)C(N)=O)c4)cc2OCC3)n(C(C)C)n1 [Taselisib]; conditions: max 10 µM
How it was run: as §1

Capivasertib = compound: C1CN(CCC1(C(=O)N[C@@H](CCO)C2=CC=C(C=C2)Cl)N)C3=NC=NC4=C3C=CN4 [Capivasertib]
How it was run: as §1

AZD5153 = compound: COc1nnc2ccc(N3CCC(c4ccc(OCCN5CCN(C)C(=O)[C@H]5C)cc4)CC3)nn12 [AZD5153]; conditions: max 1 µM
How it was run: as §1

Palbociclib = compound: CC(=O)c1c(C)c2cnc(Nc3ccc(N4CCNCC4)cn3)nc2n(C2CCCC2)c1=O [Palbociclib]; conditions: max 10 µM
How it was run: as §1

Prexasertib = compound: COc1cccc(OCCCN)c1-c1cc(Nc2cnc(C#N)cn2)n[nH]1 [Prexasertib]; conditions: max 1 µM
How it was run: as §1

Savolitinib = compound: C[C@@H](c1ccc2nccn2c1)n1nnc2ncc(-c3cnn(C)c3)nc21 [Savolitinib]; conditions: max 1 µM
How it was run: as §1

Gefitinib = compound: COc1cc2ncnc(Nc3ccc(F)c(Cl)c3)c2cc1OCCCN1CCOCC1 [Gefitinib]; conditions: max 10 µM
How it was run: as §1

SG3199 = compound: CC1=CN2[C@@H](C1)C=NC3=CC(=C(C=C3C2=O)OC)OCCCCCOC4=C(C=C5C(=C4)N=C[C@@H]6CC(=CN6C5=O)C)OC [SG3199]; conditions: max 0.001 µM
How it was run: as §1

AZD1390 = compound: CC(C)n1c(=O)n(C)c2cnc3cc(F)c(-c4ccc(OCCCN5CCCCC5)nc4)cc3c21 [AZD1390]; conditions: max 0.3 µM
How it was run: as §1

Venetoclax = compound: CC1(C)CCC(CN2CCN(c3ccc(C(=O)NS(=O)(=O)c4ccc(NCC5CCOCC5)c([N+](=O)[O-])c4)c(Oc4cnc5[nH]ccc5c4)c3)CC2)=C(c2ccc(Cl)cc2)C1 [Venetoclax]; conditions: max 1 µM
How it was run: as §1

AZD8186 = compound: C[C@@H](Nc1cc(F)cc(F)c1)c1cc(C(=O)N(C)C)cc2c(=O)cc(N3CCOCC3)oc12 [AZD8186]; conditions: max 3 µM
How it was run: as §1

AZD2811 = compound: CCN(CCO)CCCOc1ccc2c(Nc3cc(CC(=O)Nc4cccc(F)c4)[nH]n3)ncnc2c1 [AZD2811]; conditions: max 1 µM
How it was run: as §1

Doxorubicin = compound: COc1cccc2c1C(=O)c1c(O)c3c(c(O)c1C2=O)C[C@@](O)(C(=O)CO)C[C@@H]3O[C@H]1C[C@H](N)[C@H](O)[C@H](C)O1 [Doxorubicin]; conditions: max 1 µM
How it was run: as §1

Dasatinib = compound: CC1=C(C(=CC=C1)Cl)NC(=O)C2=CN=C(S2)NC3=CC(=NC(=N3)C)N4CCN(CC4)CCO [Dasatinib]; conditions: max 2 µM
How it was run: as §1

AZD1775 = compound: C=CCn1c(=O)c2cnc(Nc3ccc(N4CCN(C)CC4)cc3)nc2n1-c1cccc(C(C)(C)O)n1 [AZD1775]; conditions: max 3 µM
How it was run: as §1

Cell Line	IC50, cell viability 72 h (Olaparib; max 10 µM)	IC50, cell viability 72 h (Alisertib)	IC50, cell viability 72 h (AZD4320)	IC50, cell viability 72 h (AZD0156)	IC50, cell viability 72 h (Selumetinib)	IC50, cell viability 72 h (Trametinib)	IC50, cell viability 72 h (AZD6738)	IC50, cell viability 72 h (Lapatinib)	IC50, cell viability 72 h (Crizotinib)	IC50, cell viability 72 h (AZD7648)	IC50, cell viability 72 h (AZD5991)	IC50, cell viability 72 h (SN-38)	IC50, cell viability 72 h (Taselisib)	IC50, cell viability 72 h (Capivasertib; max 10 µM)	IC50, cell viability 72 h (AZD5153)	IC50, cell viability 72 h (Palbociclib)	IC50, cell viability 72 h (Prexasertib)	IC50, cell viability 72 h (Savolitinib)	IC50, cell viability 72 h (Gefitinib)	IC50, cell viability 72 h (SG3199)	IC50, cell viability 72 h (AZD1390)	IC50, cell viability 72 h (Venetoclax)	IC50, cell viability 72 h (AZD8186)	IC50, cell viability 72 h (AZD2811)	IC50, cell viability 72 h (Doxorubicin)	IC50, cell viability 72 h (Dasatinib)	IC50, cell viability 72 h (AZD1775)	IC50, cell viability 72 h (Olaparib; max 3 µM)	IC50, cell viability 72 h (Capivasertib; max 3 µM)
697 (B-Lymphoblastic Leukemia)	1410 nM	33.3 nM	6.75 nM	2070 nM	> 10000 nM	662 nM	336 nM	6950 nM	1100 nM	9410 nM	48.9 nM	3.34 nM	3940 nM	3240 nM	14.2 nM	263 nM	4.5 nM	> 1000 nM	> 10000 nM	> 1 nM	> 300 nM	14.3 nM	> 3000 nM	14.6 nM	17.3 nM	677 nM	149 nM	–	–
BB49-HNC (Head and Neck Carcinoma)	–	–	–	> 3000 nM	–	–	–	–	–	–	–	–	–	–	–	–	–	–	–	–	–	–	–	–	–	–	309 nM	> 3000 nM	1990 nM
C3A (Hepatocellular Carcinoma)	> 10000 nM	> 10000 nM	> 1000 nM	> 3000 nM	7960 nM	657 nM	> 10000 nM	> 10000 nM	> 10000 nM	> 10000 nM	> 1000 nM	143 nM	> 10000 nM	> 10000 nM	> 1000 nM	> 10000 nM	524 nM	> 1000 nM	> 10000 nM	> 1 nM	> 300 nM	> 1000 nM	> 3000 nM	> 1000 nM	> 1000 nM	> 2000 nM	2480 nM	–	–
CAL-78 (Chondrosarcoma)	> 10000 nM	1780 nM	> 1000 nM	> 3000 nM	> 10000 nM	> 1000 nM	> 10000 nM	> 10000 nM	> 10000 nM	> 10000 nM	261 nM	54.1 nM	> 10000 nM	> 10000 nM	> 1000 nM	> 10000 nM	226 nM	> 1000 nM	> 10000 nM	> 1 nM	> 300 nM	> 1000 nM	> 3000 nM	> 1000 nM	> 1000 nM	> 2000 nM	898 nM	–	–
CFPAC-1 (Pancreatic Carcinoma)	> 10000 nM	> 10000 nM	> 1000 nM	> 3000 nM	> 10000 nM	> 1000 nM	> 10000 nM	> 10000 nM	> 10000 nM	> 10000 nM	> 1000 nM	26.1 nM	5770 nM	> 10000 nM	> 1000 nM	> 10000 nM	108 nM	> 1000 nM	> 10000 nM	> 1 nM	> 300 nM	> 1000 nM	> 3000 nM	> 1000 nM	> 1000 nM	> 2000 nM	1440 nM	–	–
